# System: compound-treated mice
# Assay: Neuropharmacological assay (SmartCube): behavioral activity signature and minimal effective dose
# Assay type: in vivo
# Settings: Mus musculus, ip, MED = dose having 50% or more total activity, read-out: Potency: minimal effective dose (MED)
# Method in brief: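 Mice dosed i.p. 15 min before test, compound in N-methyl-2-pyrrolidone/PEG/propylene glycol, 3 doses; video-captured behavior matched to reference-drug signatures, giving per-class probabilities at most efficacious dose. MED from doses typically 0.3–30 mpk, defined as lowest dose with ≥50% total activity.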
row,Compound,minimal effective dose
1,"COc1ccc2c(c1)C(N)COC2.Cl (centres unmarked) [Example 10, 6-Methoxyisochroman-4-amine hydrochloride]",3 to 10 mg/kg
2,CC(C)(C)c1ccc2c(c1)C(N)COC2.Cl (centres unmarked) [Example 11],10 to 30 mg/kg
3,Cl.NC1COCc2ccccc21 (centres unmarked) [Example 12],10 to 30 mg/kg
4,Cl.NC1COCc2ccc3ccccc3c21 (centres unmarked) [Example 13],3 to 10 mg/kg
5,COc1ccc2c(c1)COCC2N.Cl (centres unmarked) [Example 14],10 to 30 mg/kg

# Same assay, conditions: i.p. 15 min before test, most efficacious dose(s)
Compound,AD: ADHD (probability of activity signature),AG: analgesic (probability of activity signature),AX: anxiolytic (probability of activity signature),CE: cognitive enhancer (probability of activity signature),DP: anti-depressant (probability of activity signature),MS: mood stabilizer (probability of activity signature),PS: anti-psychotic (probability of activity signature),SD: sedative hypnotic (probability of activity signature),UN: uncharacterized CNS activity (probability of activity signature)
"COc1ccc2c(c1)C(N)COC2.Cl (centres unmarked) [Example 10, 6-Methoxyisochroman-4-amine hydrochloride]",+ (LOQ ≤ + <5%),++ (5% ≤ ++ <25%),++ (5% ≤ ++ <25%),+++ (25% ≤ +++ <50%),++ (5% ≤ ++ <25%),+ (LOQ ≤ + <5%),+++ (25% ≤ +++ <50%),++ (5% ≤ ++ <25%),++ (5% ≤ ++ <25%)
CC(C)(C)c1ccc2c(c1)C(N)COC2.Cl (centres unmarked) [Example 11],+ (LOQ ≤ + <5%),+ (LOQ ≤ + <5%),+ (LOQ ≤ + <5%),++ (5% ≤ ++ <25%),++ (5% ≤ ++ <25%),+ (LOQ ≤ + <5%),+ (LOQ ≤ + <5%),++ (5% ≤ ++ <25%),+ (LOQ ≤ + <5%)
Cl.NC1COCc2ccccc21 (centres unmarked) [Example 12],+ (LOQ ≤ + <5%),++ (5% ≤ ++ <25%),++ (5% ≤ ++ <25%),++ (5% ≤ ++ <25%),++ (5% ≤ ++ <25%),+ (LOQ ≤ + <5%),++ (5% ≤ ++ <25%),+ (LOQ ≤ + <5%),+++ (25% ≤ +++ <50%)
Cl.NC1COCc2ccc3ccccc3c21 (centres unmarked) [Example 13],+ (LOQ ≤ + <5%),++ (5% ≤ ++ <25%),++ (5% ≤ ++ <25%),++ (5% ≤ ++ <25%),++ (5% ≤ ++ <25%),+ (LOQ ≤ + <5%),++ (5% ≤ ++ <25%),+ (LOQ ≤ + <5%),++++ (50% ≤ ++++)
COc1ccc2c(c1)COCC2N.Cl (centres unmarked) [Example 14],+ (LOQ ≤ + <5%),++ (5% ≤ ++ <25%),++ (5% ≤ ++ <25%),+ (LOQ ≤ + <5%),++ (5% ≤ ++ <25%),+ (LOQ ≤ + <5%),+ (LOQ ≤ + <5%),+ (LOQ ≤ + <5%),++++ (50% ≤ ++++)
